Assay results from paper PMC6751662, “Pharmacological and functional similarities of the human neuropeptide Y system in C. elegans challenges phylogenetic views on the FLP/NPR system” (Cell Communication and Signaling : CCS, 2019).
Where two headings read alike, the source gives them in different places. Ends that are not written are not given here.

Key:
NPR-11 [1] = target: T1, NPR-11 (Caenorhabditis elegans, UniProt Q18179); assay: cAMP reporter gene assay, Gi/o (inhibition of forskolin-induced cAMP), NPR-11; assay type: cell-based, C. elegans; settings: for Emax: HEK293, read-out: Emax ± SEM [%]
T1 construct: expressed in transfected cells; host or cells: HEK293, transient
T1 sequence (Q18179 1-402): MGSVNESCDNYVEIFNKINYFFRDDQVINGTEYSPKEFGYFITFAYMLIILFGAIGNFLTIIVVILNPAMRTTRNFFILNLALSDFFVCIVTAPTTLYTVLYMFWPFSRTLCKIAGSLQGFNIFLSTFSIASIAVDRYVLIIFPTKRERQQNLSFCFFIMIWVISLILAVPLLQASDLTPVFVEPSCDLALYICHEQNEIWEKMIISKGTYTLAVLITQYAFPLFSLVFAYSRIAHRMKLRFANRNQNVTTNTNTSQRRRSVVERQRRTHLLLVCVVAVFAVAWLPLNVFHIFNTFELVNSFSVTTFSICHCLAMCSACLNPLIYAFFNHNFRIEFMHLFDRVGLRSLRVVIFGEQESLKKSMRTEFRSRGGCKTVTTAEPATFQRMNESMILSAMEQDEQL
Method: (§1) Activation of Gs and Gi/o was assessed with a cAMP reporter gene assay. HEK293 cells grown to 70–80% confluency in 6-well plates were transiently co-transfected with vectors encoding the receptor and the cAMP reporter gene plasmid pGL4.29 [luc2P/CRE/Hygro] (Promega; 4 μg total, 1:1 ratio) using Metafectene Pro (3 μl/μg DNA; Biontex) following the manufacturer’s instructions. 16 h post transfection, the cells were seeded into white 384-well plates at a density of 20,000 cells/well. On the next day, the medium was removed and the cells were stimulated with 20 μl of peptide solution (or forskolin as positive control) in serum-free DMEM for 4 h. For measuring Gi/o activity, the peptide solutions additionally contained 1 μM forskolin to elevate cellular cAMP levels. After incubation, the luciferase substrate OneGlo in lysis buffer (Promega) was added and the luminescence was measured in a microplate reader Tecan Spark (Tecan). Data were analyzed with GraphPad Prism 5.03 and are shown as fold of basal or fold of forskolin in case of Gαi/o activity.
(§2) For in vitro activation, data is presented as mean ± SEM of at least three independent experiments conducted in technical triplicate. […] For the C. elegans NPRs, we considered the strongest response elicited by any of the peptides downstream of a particular receptor as the receptor’s maximal signal. This may or may not be the biological maximum that can be reached by the ‘true’ endogenous agonist. For the human receptors, the response to the established endogenous agonist reflected the maximal signal.

[2] = Solubility of crude peptides in RP-HPLC purification solvents; assay type: physicochemical; settings: H2O + 0.1% TFA / acetonitrile + 0.08% TFA (RP-HPLC purification conditions)
Method: C-terminally amidated peptides were synthesized in 15 μmol scale by solid-phase peptide synthesis following the Fmoc/tert-butyl strategy (reviewed in [18]) on Rink amide resin using an automated Syro II peptide synthesizer (MultiSynTech). Automated coupling reactions were performed as double couplings using 8 eq Nα-protected amino acid, activated in situ with equimolar amounts of Oxyma and […] in dimethylformamide (DMF) for 30 min. Automated Fmoc deprotection was carried out with 40% (v/v) piperidine in DMF for 3 min and 20% (v/v) piperidine in DMF for 10 min. Reactive side chains of amino acids were protected by tert-butyl (tBu for Tyr, Ser, Asp, Glu, Thr), trityl (Trt for Asn, Gln, His), 2,2,4,6,7-pentamethyldihydrobenzofuran-5-sulfonyl (Pbf for Arg) and tert-butyloxycarbonyl (Boc for Lys). Peptides were cleaved off the resin using trifluoroacetic acid (TFA)/H2O/triisopropylsilane (90/5/5, v/v/v) for 2.5 h at room temperature and precipitated in ice cold diethyl ether. All peptides were purified to > 95% purity by RP-HPLC (Shimadzu) using a Phenomenex Jupiter 10 μm Proteo 90 Å (C12) column. For most peptides, linear gradients of H2O + 0.1% trifluoroacetic acid (TFA) (eluent A) and acetonitrile (ACN) + 0.08% TFA (eluent B) were applied at a flow rate of 10 ml/minute. […] FLP-27, FLP-33, and FLP-34 were solubilized by ultrasonication at 50 °C for 10 min and subsequently purified under standard solvent conditions used pre-heated HPLC systems. […] Peptide identity was verified by matrix-assisted laser desorption/time of flight (MALDI-ToF; Ultraflex III MALDI-ToF/ToF, Bruker Daltonics) mass spectrometry, and peptide purity was evaluated with analytical RP-HPLC.

NPR-1 [3] = target: T2, NPR-1 (Caenorhabditis elegans, UniProt Q18534); assay: cAMP reporter gene assay, Gi/o (inhibition of forskolin-induced cAMP), NPR-1; assay type: cell-based, C. elegans; set-up: host or cells: HEK293; settings: for Emax: HEK293, read-out: Emax ± SEM [%]
T2 sequence (Q18534 1-457): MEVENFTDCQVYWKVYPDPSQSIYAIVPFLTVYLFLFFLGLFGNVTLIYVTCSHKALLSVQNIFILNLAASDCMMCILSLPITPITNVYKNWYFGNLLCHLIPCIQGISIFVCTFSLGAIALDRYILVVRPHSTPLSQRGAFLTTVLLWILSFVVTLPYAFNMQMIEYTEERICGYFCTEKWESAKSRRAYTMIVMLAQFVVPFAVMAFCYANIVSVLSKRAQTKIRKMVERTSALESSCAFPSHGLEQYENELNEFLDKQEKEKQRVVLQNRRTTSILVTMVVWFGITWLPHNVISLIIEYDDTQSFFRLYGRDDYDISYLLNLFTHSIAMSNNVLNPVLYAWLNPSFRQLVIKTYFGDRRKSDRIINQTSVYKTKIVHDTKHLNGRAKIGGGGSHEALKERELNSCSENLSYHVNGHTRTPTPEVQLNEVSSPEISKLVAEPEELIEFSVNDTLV
Method: as §1, §2

NPR-5b [4] = target: T3, NPR-5b (Caenorhabditis elegans, UniProt Q6F3C9); assay: cAMP reporter gene assay, Gi/o (with forskolin), NPR-5b; assay type: cell-based, C. elegans; set-up: Emax: unit not given here; settings: NPR-5b, transiently transfected HEK293 cells
T3 sequence (Q6F3C9 1-433): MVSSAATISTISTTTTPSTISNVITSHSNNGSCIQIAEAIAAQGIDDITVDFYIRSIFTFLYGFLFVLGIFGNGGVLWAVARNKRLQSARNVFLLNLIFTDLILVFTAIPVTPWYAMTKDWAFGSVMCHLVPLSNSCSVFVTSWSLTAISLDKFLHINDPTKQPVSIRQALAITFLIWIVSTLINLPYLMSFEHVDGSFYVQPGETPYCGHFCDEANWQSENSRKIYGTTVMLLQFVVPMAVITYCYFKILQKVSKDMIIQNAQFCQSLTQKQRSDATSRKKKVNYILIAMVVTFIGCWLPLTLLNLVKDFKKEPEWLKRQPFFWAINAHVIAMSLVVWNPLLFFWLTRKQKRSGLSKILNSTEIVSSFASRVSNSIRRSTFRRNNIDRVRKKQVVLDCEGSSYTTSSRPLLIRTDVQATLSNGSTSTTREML
Method: as §1, with “(Tecan).” for “(Tecan). Data were analyzed with GraphPad Prism 5.03 and are shown as fold of basal or fold of forskolin in case of Gαi/o activity.”
as §2

NPR-5b [5] = target: T3, NPR-5b; assay: cAMP reporter gene assay, Gs (no forskolin), NPR-5b; assay type: cell-based, C. elegans; settings: 4 h, NPR-5b-transfected HEK293, CRE-luciferase reporter, mean of >=3 independent experiments
Method: as §1, §2

NPR-11 [6] = target: T1, NPR-11; assay: cAMP reporter gene assay, Gs (no forskolin), NPR-11; assay type: cell-based, C. elegans; settings: 4 h, NPR-11-transfected HEK293, CRE-luciferase reporter, mean of >=3 independent experiments
Method: as §1, §2

NPR-6 = assay: cAMP reporter gene assay, Gs (no forskolin), NPR-6; assay type: cell-based, C. elegans; settings: 4 h, NPR-6-transfected HEK293, CRE-luciferase reporter, mean of >=3 independent experiments
Method: as §1, §2

NPR-4b [7] = target: T4, NPR-4b (Caenorhabditis elegans, UniProt A0A078BTK0); assay: cAMP reporter gene assay, Gs (no forskolin), NPR-4b; assay type: cell-based, C. elegans; settings: 4 h, NPR-4b-transfected HEK293, CRE-luciferase reporter, mean of >=3 independent experiments
T4 sequence (A0A078BTK0 1-376): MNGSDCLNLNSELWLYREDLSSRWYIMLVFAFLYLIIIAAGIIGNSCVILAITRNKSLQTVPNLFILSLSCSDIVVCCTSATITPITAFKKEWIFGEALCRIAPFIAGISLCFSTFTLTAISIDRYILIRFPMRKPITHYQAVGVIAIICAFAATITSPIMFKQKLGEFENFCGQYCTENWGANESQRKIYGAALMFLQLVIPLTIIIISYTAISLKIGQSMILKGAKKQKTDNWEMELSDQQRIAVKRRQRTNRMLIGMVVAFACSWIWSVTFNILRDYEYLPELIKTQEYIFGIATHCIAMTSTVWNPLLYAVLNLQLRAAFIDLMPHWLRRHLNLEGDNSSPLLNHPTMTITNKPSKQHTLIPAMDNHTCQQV
Method: as §1, §2

NPR-1 [8] = target: T2, NPR-1; assay: cAMP reporter gene assay, Gs (no forskolin), NPR-1; assay type: cell-based, C. elegans; set-up: host or cells: HEK293; settings: 4 h, NPR-1-transfected HEK293, CRE-luciferase reporter, mean of >=3 independent experiments
Method: as §1, §2

NPR-3 = assay: cAMP reporter gene assay, Gs (no forskolin), NPR-3; assay type: cell-based, C. elegans; settings: 4 h, NPR-3-transfected HEK293, CRE-luciferase reporter, mean of >=3 independent experiments
Method: as §1, §2

NPR-4b [9] = target: T4, NPR-4b; assay: cAMP reporter gene assay, Gi/o (inhibition of forskolin-induced cAMP), NPR-4b; assay type: cell-based, C. elegans
Method: as §1, with “(Tecan).” for “(Tecan). Data were analyzed with GraphPad Prism 5.03 and are shown as fold of basal or fold of forskolin in case of Gαi/o activity.”
as §2

[10] = 1 µM forskolin (positive control)
[11] = 100 µM forskolin (positive control)

Compound: ADISTFASAINNAGRLRY-NH2 [FLP-34-1]
- Emax (NPR-11 [1]; SEM): -0.62 ± 0.1%
- EC50 (NPR-11 [1]; SEM): 0.02 µM
- solubility of crude peptide [2]: partly insoluble
- EC50 (NPR-1 [3]): 0.578 µM
- Emax (NPR-1 [3]; SEM): -0.65 ± 0.14%
- Emax (NPR-5b [4]; forskolin (1 µM) set to 1.00, increase of cAMP, mean ± SEM of at least three independent experiments, SEM): 6.7 ± 8.21
- EC50 (NPR-5b [4]; full concentration-response curve, with 1 µM forskolin, increase of cAMP, at least three independent experiments): 20.1 µM

Compound: C=C[C@@]1(C)CC(=O)[C@]2(O)[C@@]3(C)[C@@H](O)CCC(C)(C)[C@@H]3[C@H](O)[C@H](OC(C)=O)[C@@]2(C)O1 [forskolin, reference compound]
- cAMP assay Gs, NPR-5b (NPR-5b [5]; [10]): 23.17 x-fold of basal
- cAMP assay Gs, NPR-5b (NPR-5b [5]; [11]): 67.99 x-fold of basal
- cAMP assay Gs, NPR-11 (NPR-11 [6]; [10]): 16.67 x-fold of basal
- cAMP assay Gs, NPR-11 (NPR-11 [6]; [11]): 60.68 x-fold of basal
- cAMP assay Gs, NPR-6 (NPR-6; [10]): 12.19 x-fold of basal
- cAMP assay Gs, NPR-6 (NPR-6; [11]): 46.24 x-fold of basal
- cAMP assay Gs, NPR-4b (NPR-4b [7]; [10]): 16.52 x-fold of basal
- cAMP assay Gs, NPR-4b (NPR-4b [7]; [11]): 44.21 x-fold of basal
- cAMP assay Gs, NPR-1 (NPR-1 [8]; [10]): 15.39 x-fold of basal
- cAMP assay Gs, NPR-1 (NPR-1 [8]; [11]): 76.79 x-fold of basal
- cAMP assay Gs, NPR-3 (NPR-3; [10]): 20.07 x-fold of basal
- cAMP assay Gs, NPR-3 (NPR-3; [11]): 51.90 x-fold of basal

Compound: KHEYLRF-NH2 [FLP-14]
- EC50 (NPR-11 [1]): 1.89 µM
- Emax (NPR-11 [1]; SEM): -0.86 ± 0.19%
- EC50 (NPR-4b [9]): 2.43 µM
- Emax (NPR-4b [9]; NPR-4b, forskolin (1 µM) set to 1.00, lower values correspond to high Gi/o activity, transiently transfected HEK293 cells, mean ± SEM of at least three independent experiments, SEM): -0.77 ± 0.2%
- Emax (NPR-1 [3]; SEM): -0.51 ± 0.13%
- EC50 (NPR-1 [3]; SEM): 0.0251 µM
- Emax at NPR-1 (NPR-1 [3]; full concentration-response curve, inhibition of 1 µM forskolin-induced cAMP, transfected HEK293 (Figure S1)): 53 % of FLP-21 induced response

Compound: ALNRDSLVASLNNAERLRF-NH2 [FLP-34-2]
- EC50 (NPR-11 [1]; EC50 at NPR-11, full concentration-response curve, inhibition of 1 µM forskolin-induced cAMP, transfected HEK293 (Figure S1, Table S11)): 0.0007 µM
- Emax (NPR-11 [1]; SEM): -0.65 ± 0.14%
- EC50 (NPR-11 [1]; SEM): 0.000631 µM
- solubility of crude peptide [2]: partly insoluble
